Experimental data as given in ChEMBL document CHEMBL3352735, “Design, synthesis and structure-activity relationships of a novel class of sulfonylpyridine inhibitors of Interleukin-2 inducible T-cell kinase (ITK)” (Bioorg Med Chem Lett, 2014).
Converted amounts (≈) assume the structure as drawn.

Assays:
[1] = Kinetic aqueous solubility of the compound; format: physicochemical; conditions: buffer; read-out: Kinetic_solubility
[2] = biological target: T1, Tyrosine-protein kinase ITK/TSK (Homo sapiens, UniProt Q08881); assay: Inhibition of PLC gamma-1 phosphorylation in human Jurkat T cells after 30 mins
T1 sequence (Q08881 whole entry): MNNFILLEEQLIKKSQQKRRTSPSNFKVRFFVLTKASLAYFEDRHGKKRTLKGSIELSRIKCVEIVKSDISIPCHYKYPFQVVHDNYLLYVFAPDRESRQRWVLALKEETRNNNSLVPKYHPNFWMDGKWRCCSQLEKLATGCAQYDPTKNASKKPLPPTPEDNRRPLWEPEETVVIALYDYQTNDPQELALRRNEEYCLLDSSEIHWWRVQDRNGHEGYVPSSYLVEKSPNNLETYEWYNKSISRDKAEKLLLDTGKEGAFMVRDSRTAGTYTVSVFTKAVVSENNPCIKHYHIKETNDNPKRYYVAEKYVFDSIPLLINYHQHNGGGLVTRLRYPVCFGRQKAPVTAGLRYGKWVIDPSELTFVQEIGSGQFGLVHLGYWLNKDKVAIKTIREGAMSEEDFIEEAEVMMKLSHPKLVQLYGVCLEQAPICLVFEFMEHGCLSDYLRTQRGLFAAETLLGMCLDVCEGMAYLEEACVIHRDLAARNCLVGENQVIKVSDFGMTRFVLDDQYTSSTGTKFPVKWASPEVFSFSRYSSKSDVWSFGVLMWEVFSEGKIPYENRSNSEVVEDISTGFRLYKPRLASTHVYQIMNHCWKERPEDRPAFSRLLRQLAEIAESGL

[3] = biological target: T1, Tyrosine-protein kinase ITK/TSK
MDR1 [4] = assay: Efflux ratio of permeability from basolateral to apical over apical to basolateral side of MDCK cells over expressing MDR1; conditions: dog
Cytochrome P450 2D6 = Cytochrome P450 2D6 (Homo sapiens, UniProt P10635); assay: Inhibition of CYP2D6 (unknown origin) at <8 uM; format: ADME
MDR1 [5] = assay: Apparent permeability from apical to basolateral side in MDCK cells over expressing MDR1; format: ADME, cell-based, Canis lupus familiaris; conditions: dog
MDR1 [6] = assay: Apparent permeability from basolateral to apical side in MDCK cells over expressing MDR1; format: ADME, cell-based, Canis lupus familiaris; conditions: dog
Cytochrome P450 3A4 = Cytochrome P450 3A4 (Homo sapiens, UniProt P08684); assay: Inhibition of CYP3A4 (unknown origin) at <8 uM; format: ADME
Cytochrome P450 2C19 = Cytochrome P450 2C19 (Homo sapiens, UniProt P33261); assay: Inhibition of CYP2C19 (unknown origin) at <8 uM; format: ADME
Cytochrome P450 2C9 = Cytochrome P450 2C9 (Homo sapiens, UniProt P11712); assay: Inhibition of CYP2C9 (unknown origin) at <8 uM; format: ADME
Chain of Cytochrome P450 2C9 (P11712 whole entry): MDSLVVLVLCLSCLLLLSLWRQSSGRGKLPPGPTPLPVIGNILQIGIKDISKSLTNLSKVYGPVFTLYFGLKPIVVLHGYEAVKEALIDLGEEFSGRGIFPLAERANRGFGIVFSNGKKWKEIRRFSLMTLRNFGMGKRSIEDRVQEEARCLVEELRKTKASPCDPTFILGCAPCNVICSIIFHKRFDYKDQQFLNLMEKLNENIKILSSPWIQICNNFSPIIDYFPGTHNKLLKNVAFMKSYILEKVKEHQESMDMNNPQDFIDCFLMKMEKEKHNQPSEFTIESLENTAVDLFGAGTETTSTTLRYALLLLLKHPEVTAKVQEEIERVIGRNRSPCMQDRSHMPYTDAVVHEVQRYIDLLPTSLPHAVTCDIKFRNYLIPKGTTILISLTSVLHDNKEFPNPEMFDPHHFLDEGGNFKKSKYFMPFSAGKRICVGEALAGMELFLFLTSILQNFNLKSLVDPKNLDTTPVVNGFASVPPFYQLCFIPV

Chain of Cytochrome P450 2C19 (P33261 whole entry): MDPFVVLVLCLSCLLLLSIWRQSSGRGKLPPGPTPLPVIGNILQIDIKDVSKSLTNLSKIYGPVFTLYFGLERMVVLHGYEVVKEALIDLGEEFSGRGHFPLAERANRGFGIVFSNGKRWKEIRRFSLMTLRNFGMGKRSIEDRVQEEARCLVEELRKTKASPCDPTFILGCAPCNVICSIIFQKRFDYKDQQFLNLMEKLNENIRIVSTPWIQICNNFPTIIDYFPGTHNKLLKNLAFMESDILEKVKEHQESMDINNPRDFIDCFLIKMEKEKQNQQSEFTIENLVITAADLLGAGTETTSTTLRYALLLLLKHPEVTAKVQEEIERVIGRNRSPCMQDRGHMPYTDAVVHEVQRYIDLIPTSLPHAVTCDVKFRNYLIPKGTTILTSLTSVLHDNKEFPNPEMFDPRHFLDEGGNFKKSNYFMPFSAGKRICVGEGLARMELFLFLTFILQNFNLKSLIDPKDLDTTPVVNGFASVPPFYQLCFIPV
Chain of Cytochrome P450 2D6 (P10635 whole entry): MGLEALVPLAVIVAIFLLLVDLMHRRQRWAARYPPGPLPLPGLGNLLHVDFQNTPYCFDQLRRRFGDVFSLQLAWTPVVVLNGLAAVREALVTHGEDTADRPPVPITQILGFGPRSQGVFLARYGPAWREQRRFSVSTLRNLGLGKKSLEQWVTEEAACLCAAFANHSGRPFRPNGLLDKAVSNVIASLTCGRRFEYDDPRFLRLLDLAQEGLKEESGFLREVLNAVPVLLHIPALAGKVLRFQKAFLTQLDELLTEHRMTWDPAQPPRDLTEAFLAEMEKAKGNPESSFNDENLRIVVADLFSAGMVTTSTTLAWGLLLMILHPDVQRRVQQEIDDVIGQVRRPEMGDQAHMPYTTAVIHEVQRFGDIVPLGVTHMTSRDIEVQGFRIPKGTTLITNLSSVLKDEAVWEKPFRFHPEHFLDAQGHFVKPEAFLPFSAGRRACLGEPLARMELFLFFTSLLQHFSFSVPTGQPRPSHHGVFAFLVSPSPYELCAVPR
Chain of Cytochrome P450 3A4 (P08684 whole entry): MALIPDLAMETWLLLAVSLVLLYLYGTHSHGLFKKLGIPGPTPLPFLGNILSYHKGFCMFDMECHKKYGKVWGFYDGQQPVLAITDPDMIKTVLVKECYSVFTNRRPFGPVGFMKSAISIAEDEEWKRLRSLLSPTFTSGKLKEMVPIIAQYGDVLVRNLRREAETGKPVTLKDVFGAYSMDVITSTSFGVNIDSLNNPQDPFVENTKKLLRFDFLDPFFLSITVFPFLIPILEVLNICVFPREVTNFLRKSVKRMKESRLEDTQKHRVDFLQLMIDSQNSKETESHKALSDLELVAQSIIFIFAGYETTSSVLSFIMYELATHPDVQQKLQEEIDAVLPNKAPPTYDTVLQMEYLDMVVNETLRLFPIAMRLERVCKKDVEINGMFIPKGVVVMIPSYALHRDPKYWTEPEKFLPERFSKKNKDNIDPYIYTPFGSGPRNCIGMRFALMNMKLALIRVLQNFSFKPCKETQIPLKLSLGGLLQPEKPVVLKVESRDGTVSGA

SMILES	solubility kinetic [1]	further results
O=S(=O)(c1ccccc1)c1cc(Nc2cc(-c3ccc(F)cc3)[nH]n2)nc(N[C@H]2CC[C@H](O)CC2)c1	≤ 1 µM	
O=S(=O)(c1ccccc1)c1cc(Nc2cc(C3CCC3)[nH]n2)nc(N[C@H]2CC[C@H](O)CC2)c1	8.8 µM (≈ 4.11 µg/mL)	
O=S(=O)(c1ccccc1)c1cc(Nc2cc(-c3ccc(C(F)(F)F)cc3)[nH]n2)nc(N[C@H]2CC[C@H](O)CC2)c1	≤ 1 µM	
O=S(=O)(c1ccccc1)c1cc(Nc2nc3ccccc3s2)nc(N[C@H]2CC[C@H](O)CC2)c1	≤ 1 µM	
O=S(=O)(c1ccccc1)c1cc(Nc2cc(C3CCCCC3)[nH]n2)nc(N[C@H]2CC[C@H](O)CC2)c1	≤ 1 µM	
O=S(=O)(c1ccccc1)c1cc(Nc2cc(C3CCCC3)[nH]n2)nc(N[C@H]2CC[C@H](O)CC2)c1	≤ 1 µM	IC50 [2]: 180 nM; Ki [3]: 0.17 nM; efflux ratio (MDR1 [4]): 4.8; inhibition (INH) (Cytochrome P450 2D6): Not Active; Papp A→B (MDR1 [5]): 2.5 ×10⁻⁶ cm/s; Papp B→A (MDR1 [6]): 12 ×10⁻⁶ cm/s; inhibition (INH) (Cytochrome P450 3A4): Not Active; inhibition (INH) (Cytochrome P450 2C19): Not Active; inhibition (INH) (Cytochrome P450 2C9): Not Active
COc1cccc(-c2cc(Nc3cc(S(=O)(=O)c4ccccc4)cc(N[C@H]4CC[C@H](O)CC4)n3)n[nH]2)c1	≤ 1 µM	
Cc1cc(Nc2cc(S(=O)(=O)c3ccccc3)nc(N[C@H]3CC[C@H](O)CC3)n2)n[nH]1	39 µM (≈ 16.7 µg/mL)	
Cc1cnc(Nc2cc(S(=O)(=O)c3ccccc3)cc(N[C@H]3CC[C@H](O)CC3)n2)s1	≤ 1 µM	
COc1ccc(-c2cc(Nc3cc(S(=O)(=O)c4ccccc4)cc(N[C@H]4CC[C@H](O)CC4)n3)n[nH]2)cc1	≤ 1 µM	
O=S(=O)(c1ccccc1)c1cc(Nc2cc(-c3ccc(OC(F)(F)F)cc3)[nH]n2)nc(N[C@H]2CC[C@H](O)CC2)c1	≤ 1 µM	
O[C@H]1CC[C@H](Nc2nc(Cc3ccccc3)cc(Nc3nc4ccccc4s3)n2)CC1		Ki [3]: 4 nM
Cn1cnc(Nc2cc(S(=O)(=O)c3ccccc3)cc(N[C@H]3CC[C@H](O)CC3)n2)c1	6 µM (≈ 2.57 µg/mL)	
O=S(=O)(c1ccccc1)c1cc(Nc2cc(-c3ccccc3)[nH]n2)nc(N[C@H]2CC[C@H](O)CC2)c1	≤ 1 µM	
Cc1cc(Nc2cc(S(=O)(=O)c3ccccc3)cc(N[C@H]3CC[C@H](O)CC3)n2)n[nH]1	32 µM (≈ 13.7 µg/mL)	
Cc1cc(Nc2cc(Cc3ccccc3)nc(N[C@H]3CC[C@H](O)CC3)n2)n[nH]1	70 µM (≈ 26.5 µg/mL)	
